In one test the test system is Raji. As to the kind of experiment: Cytotoxicity against human Raji cells after 72 hrs by alamar blue assay. Type of test: ADME, cell-based. Background: The colour change of resazurin is a common sign of viable cells or microbes.
The next test relates to BJ. The test can be described thus: Cytotoxicity against human BJ cells after 72 hrs by alamar blue assay. The class given is ADME, cell-based.
The next test addresses Rhodesain (Trypanosoma brucei rhodesiense, UniProt Q95PM0). As to the kind of experiment: Inhibition of Trypanosoma brucei rhodesiense rhodesain.
Test [1] in a line: Inhibition of Trypanosoma brucei cathepsin B expressed in Pichia pastoris.
In the next test the test system is Trypanosoma brucei. The test can be described thus: Antitrypanosomal activity against Trypanosoma brucei after 48 hrs. Type of test: functional, organism-based.
The target in the next test is Procathepsin L (Homo sapiens, UniProt P07711). As to the kind of experiment: Inhibition of human liver cathepsin L.
Another test has as its system HepG2. As to the kind of experiment: Cytotoxicity against human HepG2 cells after 72 hrs by alamar blue assay. The class given is ADME, cell-based. The note with it: HepG2, 72 h.
The subject of the next test is HEK293. The test can be described thus: Cytotoxicity against human HEK293 cells after 72 hrs by alamar blue assay. The class given is ADME, cell-based. To be noted: HEK293, 72 h.
The next test addresses Cathepsin B (Homo sapiens, UniProt P07858). The test can be described thus: Inhibition of human liver cathepsin B.

Structures are written as SMILES. Bounds are passed on as bounds.

Sequence of Procathepsin L (P07711 whole entry): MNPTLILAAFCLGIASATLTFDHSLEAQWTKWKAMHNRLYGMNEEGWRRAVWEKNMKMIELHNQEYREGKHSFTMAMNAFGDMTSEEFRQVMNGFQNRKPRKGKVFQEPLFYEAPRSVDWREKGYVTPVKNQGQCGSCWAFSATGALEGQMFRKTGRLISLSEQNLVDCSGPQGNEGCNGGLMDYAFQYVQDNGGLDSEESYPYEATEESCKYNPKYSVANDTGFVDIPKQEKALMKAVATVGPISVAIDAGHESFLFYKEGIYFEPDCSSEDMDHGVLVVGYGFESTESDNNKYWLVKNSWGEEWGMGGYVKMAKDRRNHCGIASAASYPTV
Sequence of Rhodesain (Q95PM0 whole entry): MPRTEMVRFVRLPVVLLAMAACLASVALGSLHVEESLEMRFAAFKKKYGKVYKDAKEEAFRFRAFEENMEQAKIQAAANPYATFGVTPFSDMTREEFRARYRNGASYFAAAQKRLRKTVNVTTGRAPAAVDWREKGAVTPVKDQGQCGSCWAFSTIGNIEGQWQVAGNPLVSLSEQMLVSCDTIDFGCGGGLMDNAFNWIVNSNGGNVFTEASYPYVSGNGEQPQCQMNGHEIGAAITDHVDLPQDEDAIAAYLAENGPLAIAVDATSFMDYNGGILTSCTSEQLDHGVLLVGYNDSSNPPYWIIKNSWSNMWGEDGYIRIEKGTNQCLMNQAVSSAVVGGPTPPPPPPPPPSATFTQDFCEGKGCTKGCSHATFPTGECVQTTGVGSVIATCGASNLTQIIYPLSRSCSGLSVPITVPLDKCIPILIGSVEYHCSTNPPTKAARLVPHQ

Regarding `N#Cc1nc(NCc2cccc(-c3cc(Cl)cc(Cl)c3)c2)c2ncn(CCCO)c2n1`, the EC50 – broadly, the concentration needed to bring the measured effect to its halfway point – in the test on Raji was more than 10000 nM; in the test with BJ, more than 10000 nM; in the test on Trypanosoma brucei, 3300 nM; with HepG2 it was more than 10000 nM; in the test with HEK293, more than 10000 nM. In addition, the IC50 (usually the concentration needed to halve the response being measured) on Rhodesain stood at 1100 nM; in [1] it was 1200 nM; at Procathepsin L it was 900 nM.

In the case of `N#Cc1nc(NCc2cccc(-c3ccc(Cl)c(Cl)c3)c2)c2ncn(CCCO)c2n1`, the concentration giving a half-maximal response (EC50) was more than 10000 nM with Raji; more than 10000 nM with BJ; 2300 nM in the test on Trypanosoma brucei; more than 10000 nM in the test with HepG2; more than 10000 nM with HEK293. For the same compound, the values for the IC50 (on Rhodesain; in test [1]; against Procathepsin L) were 900 nM, 1200 nM and 1600 nM, respectively.

Turning to `CN(C)c1cccc(-c2cccc(CNc3nc(C#N)nc4c3ncn4CCCO)c2)c1`, the EC50 in the test with Raji, in the test on BJ, in the test on HepG2 and in the test with HEK293 was more than 10000 nM throughout. Also, the values for the IC50 (against Rhodesain; in test [1]; against Procathepsin L) were 900 nM, 1200 nM and 1400 nM, respectively.

Regarding `COC(=O)c1cccc(-c2cccc(CNc3nc(C#N)nc4c3ncn4CCCO)c2)c1`, the EC50 with Raji was more than 10000 nM; in the test on BJ, more than 10000 nM; in the test on Trypanosoma brucei, 2700 nM; in the test with HepG2, more than 10000 nM; in the test with HEK293 it was more than 10000 nM. This compound came in with an IC50 against Rhodesain of 500 nM.

As for `C=Cc1cccc(-c2cccc(CNc3nc(C#N)nc4c3ncn4CCCO)c2)c1`, the EC50 with Raji, in the test with BJ, in the test with HepG2 and in the test with HEK293 was more than 10000 nM throughout. The compound further came in with an IC50 in test [1] of 800 nM.

As for `C=Cc1ccc(-c2cccc(CNc3nc(C#N)nc4c3ncn4CCCO)c2)cc1`, the EC50 in the test with Raji, in the test with BJ, with HepG2 and in the test on HEK293 was more than 10000 nM in each case. Besides, the IC50 against Rhodesain is 1800 nM; in [1], 900 nM; against Procathepsin L, 1100 nM.

For the compound `N#Cc1nc(NCc2cccc(-c3ccc4ccccc4c3)c2)c2ncn(CCCO)c2n1`, the EC50 in the test on Raji is more than 10000 nM; in the test with BJ it was more than 10000 nM; in the test on Trypanosoma brucei, 1100 nM; with HepG2, more than 10000 nM; in the test with HEK293, more than 10000 nM. In addition, the results for the IC50 (at Rhodesain; in test [1]; against Procathepsin L) were 700 nM, 230 nM and 800 nM, respectively.

Take `N#Cc1nc(NCc2cccc(-c3ccco3)c2)c2ncn(CCCO)c2n1`: the EC50 with Raji was more than 10000 nM; in the test with BJ, more than 10000 nM; in the test with Trypanosoma brucei, 1600 nM; in the test on HepG2 it was more than 10000 nM; with HEK293, more than 10000 nM. Also, the IC50 at Rhodesain came out at 310 nM; in test [1], 1000 nM; at Procathepsin L, 840 nM.

For `N#Cc1nc(NCc2cccc(-c3ccsc3)c2)c2ncn(CCCO)c2n1`, the EC50 in the test on Raji was more than 10000 nM; in the test on BJ it was more than 10000 nM; in the test with Trypanosoma brucei, 430 nM; in the test on HepG2, more than 10000 nM; in the test on HEK293 it was more than 10000 nM. The IC50 against Rhodesain was determined as 240 nM; in [1], 370 nM; against Procathepsin L, 480 nM.

For the compound `N#Cc1nc(NCc2cccc(-c3ccoc3)c2)c2ncn(CCCO)c2n1`, the EC50 with Raji is more than 10000 nM; in the test on BJ, more than 10000 nM; in the test on Trypanosoma brucei, 560 nM; in the test with HepG2, more than 10000 nM; with HEK293 it was more than 10000 nM. The IC50 came to 30 nM against Rhodesain, 460 nM in test [1] and 600 nM at Procathepsin L.

For `CC(C)Oc1c(Br)cccc1-c1cccc(CNc2nc(C#N)nc3c2ncn3CCCO)c1`, the EC50 with Raji, with BJ, with HepG2 and in the test on HEK293 was more than 10000 nM throughout. Besides, the IC50 was 1500 nM against Rhodesain, 900 nM in [1], 1300 nM against Procathepsin L and more than 50000 nM at Cathepsin B.

Regarding `Cc1ccccc1-c1cccc(CNc2nc(C#N)nc3c2ncn3CCCO)c1`, the IC50 against Rhodesain is more than 50000 nM; in [1], 390 nM; on Procathepsin L, 1100 nM.

As for `N#Cc1nc(NCc2cccc(-c3ccc(Cl)cc3)c2)c2ncn(CCCO)c2n1`, the figures for the IC50 against Rhodesain and against Procathepsin L were 1400 nM and 1900 nM, respectively.

Turning to `COc1ccc(-c2cccc(CNc3nc(C#N)nc4c3ncn4CCCO)c2)cc1`, the EC50 with Raji, in the test with BJ, with HepG2 and in the test with HEK293 was more than 10000 nM in each case. For the same compound, the IC50 against Rhodesain was found to be 800 nM; in test [1] it was 1200 nM; against Procathepsin L, 1100 nM.

In the case of `N#Cc1nc(NCc2cccc(-c3ccccc3)c2)c2ncn(CCCO)c2n1`, the EC50 in the test with Raji was more than 10000 nM; with BJ it was more than 10000 nM; in the test on Trypanosoma brucei, 1400 nM; in the test with HepG2 it was more than 10000 nM; in the test with HEK293, more than 10000 nM. The IC50 turned out to be 700 nM against Rhodesain, 1800 nM in [1] and 800 nM at Procathepsin L.

`N#Cc1nc(NCc2cccc(-c3cccnc3)c2)c2ncn(CCCO)c2n1`: the EC50 was more than 10000 nM in the test with Raji; more than 10000 nM in the test on BJ; 1400 nM in the test with Trypanosoma brucei; more than 10000 nM in the test with HepG2; more than 10000 nM in the test on HEK293. Further, the values for the IC50 (against Rhodesain; in [1]; on Procathepsin L) were 260 nM, 600 nM and 1600 nM, respectively.

On to `N#Cc1nc(NCc2cccc(-c3cccs3)c2)c2ncn(CCCO)c2n1`, for which the 50% effective concentration (EC50) with Raji, in the test with BJ, in the test with HepG2 and with HEK293 was more than 10000 nM throughout. In addition, the IC50 at Rhodesain worked out at 800 nM; in test [1], 600 nM; on Procathepsin L it was 900 nM.

Consider `N#Cc1nc(NCc2cccc(-c3ccccc3Cl)c2)c2ncn(CCCO)c2n1`, for which the IC50 was determined as 20000 nM against Rhodesain, 1300 nM in test [1] and 16000 nM against Procathepsin L.

Consider `N#Cc1nc(NCc2cccc(-c3cccc(Cl)c3)c2)c2ncn(CCCO)c2n1`, for which the EC50 with Raji is more than 10000 nM; in the test on BJ, more than 10000 nM; with Trypanosoma brucei, 3700 nM; in the test with HepG2 it was more than 10000 nM; in the test on HEK293, more than 10000 nM. For the same compound, the IC50 came to 1200 nM at Rhodesain, 800 nM in test [1] and 700 nM on Procathepsin L.

With `N#Cc1nc(NCc2cccc(-c3c(F)c(F)c(F)c(F)c3F)c2)c2ncn(CCCO)c2n1`, the EC50 in the test on Raji, in the test on BJ, in the test on HepG2 and in the test with HEK293 was more than 10000 nM throughout. For the same compound, the IC50 against Rhodesain was determined as 5200 nM; in test [1], 900 nM; against Procathepsin L, 2700 nM.

With `N#Cc1nc(NCc2cccc(-c3ccc4[nH]ccc4c3)c2)c2ncn(CCCO)c2n1`, the EC50 is more than 10000 nM with Raji; more than 10000 nM in the test with BJ; 380 nM in the test on Trypanosoma brucei; more than 10000 nM in the test on HepG2; more than 10000 nM in the test with HEK293. Moreover, the IC50 against Rhodesain was determined as 500 nM; in test [1] it was 250 nM; against Procathepsin L it was 190 nM.

Turning to `CC(C)c1ccccc1-c1cccc(CNc2nc(C#N)nc3c2ncn3CCCO)c1`, the results for the IC50 (in test [1]; against Procathepsin L) were 310 nM and 900 nM, respectively. Further, the EC50 in the test on Trypanosoma brucei is 630 nM.

For the compound `CC(=O)Nc1cccc(-c2cccc(CNc3nc(C#N)nc4c3ncn4CCCO)c2)c1`, the EC50 with Raji is more than 10000 nM; in the test with BJ, more than 10000 nM; with Trypanosoma brucei, 4100 nM; in the test with HepG2, more than 10000 nM; in the test with HEK293, more than 10000 nM. In test [1], this compound registered an IC50 of 1600 nM.

In the case of `COc1ncc(-c2cccc(CNc3nc(C#N)nc4c3ncn4CCCO)c2)c(OC)n1`, the EC50 is more than 10000 nM in the test with Raji; more than 10000 nM with BJ; 5900 nM in the test with Trypanosoma brucei; more than 10000 nM in the test on HepG2; more than 10000 nM in the test on HEK293. Further, the IC50 at Rhodesain was 4000 nM; in test [1] it was 2900 nM; against Procathepsin L it was 6000 nM; at Cathepsin B, more than 15000 nM.

Take `COC(=O)c1ccccc1-c1cccc(CNc2nc(C#N)nc3c2ncn3CCCO)c1`: the IC50 against Rhodesain was more than 10000 nM; in test [1], 1000 nM; on Procathepsin L, 1400 nM; against Cathepsin B it was more than 15000 nM. The EC50 in the test with Trypanosoma brucei is 700 nM.

Take `N#Cc1nc(NCc2cccc(-c3ccccc3C(F)(F)F)c2)c2ncn(CCCO)c2n1`: the EC50 with Raji, with BJ, in the test on HepG2 and in the test with HEK293 was more than 10000 nM each time. Moreover, the figures for the IC50 (on Rhodesain; in test [1]; against Procathepsin L) were 8000 nM, 280 nM and 1500 nM, respectively.

Consider `COC(=O)c1ccc(-c2cccc(CNc3nc(C#N)nc4c3ncn4CCCO)c2)cc1`, for which the EC50 with Raji is more than 10000 nM; with BJ, more than 10000 nM; with Trypanosoma brucei, 4000 nM; with HepG2 it was more than 10000 nM; in the test with HEK293 it was more than 10000 nM. Further, the IC50 stood at 1200 nM on Rhodesain, 1600 nM in [1] and 1800 nM at Procathepsin L.

With `N#Cc1nc(NCc2cccc(-c3cc4ccccc4n3S(=O)(=O)c3ccccc3)c2)c2ncn(CCCO)c2n1`, the concentration for a half-maximal effect (EC50) with Raji, in the test on BJ, in the test on HepG2 and with HEK293 was more than 10000 nM each time. The IC50 against Rhodesain is 9000 nM; in test [1], more than 15000 nM; against Procathepsin L it was 1800 nM; on Cathepsin B, more than 50000 nM.

For the compound `Cc1cccc(C)c1-c1cccc(CNc2nc(C#N)nc3c2ncn3CCCO)c1`, the IC50 was more than 15000 nM against Rhodesain, 270 nM in test [1] and 1000 nM on Procathepsin L.

With `N#Cc1nc(NCc2cccc(-c3ccc4cc[nH]c4c3)c2)c2ncn(CCCO)c2n1`, the EC50 is more than 10000 nM in the test with Raji; more than 10000 nM in the test with BJ; 800 nM in the test with Trypanosoma brucei; more than 10000 nM with HepG2; more than 10000 nM in the test on HEK293. Moreover, the IC50 stood at 260 nM on Rhodesain, 240 nM in test [1] and 460 nM against Procathepsin L.

The values are drawn from ChEMBL document CHEMBL1155239, “Structure-guided development of selective TbcatB inhibitors” (J Med Chem, 2009).
